{"source": "patent US6773895B2", "about": "“Method for identifying substances which positively influence inflammatory conditions of chronic inflammatory airway diseases” (Boehringer Ingelheim Pharma KG, priority 2000, dated 2004)", "key": {"[1]": {"test_system": "MonoMac6 cells", "test": "Chemotaxis (migration) of MonoMac6 cells, 48-well chemotaxis chamber", "format": "cell-based, human", "settings": "PMA-treated MonoMac6 cells, 4 hours of migration, fold increase in migrated cells over control medium", "protocol": "Since an increased invasion of macrophages in peripheral airways of COPD patients can be observed, we tested the chemotactic ability of MonoMac6 cells which serve as a cell culture model for alveolar macrophages. Chemotaxis of MonoMac6 is determined by administering different ligands for FPRL-1.\nMonoMac6 cells are treated with PMA for 24-30 hours in order to induce an activation state of the cells. Cells are harvested, washed twice with RPMI 1640 without supplements, and seeded at a density of 500,000 cells/well (24-well plate) in the presence of 10 nM PMA. After 24-30 hours cells are released from the substratum by repeated rinsing with a pipet, spun down, counted and adjusted to a density of 1×10^6 cells/ml of RPMI 1640 media without supplements but in the presence of 10 nM PMA. Chemotaxis is performed in a 48-well chemotaxis chamber (Neuroprobe Inc.) and polycarbonate membranes with a pore size of 8 μm (Neuroprobe Inc.). The lower wells of the chamber are filled with 28 μl of different concentrations of lipoxin A4, W-peptide, MCP-1 as a positive control, and RPMI 1640 media without supplements (including 10 nM PMA) as a negative control. The lower wells are covered with the polycarbonate membrane and the upper compartments of the chamber are filled with 50 μl of the cell suspension (50,000 cells per well). After 4 hours of migration at 37° C., 5% CO2 the cells on the upper part of the membrane are scraped off and the cells attached at the lower part of the membrane are stained with the Diff Quik Staining Set (Dade Behring) according to the manufacturer's protocol. Stained cells are counted in 6 to 8 high power fields at a magnification of 250× with a light microscope. The migration index represents the fold increase in the number of cells migrated in response to the chemoattractant over control medium."}, "[2]": {"test_system": "monocytes", "settings": "cited from earlier work"}, "[3]": {"test_system": "neutrophils", "settings": "cited from earlier work"}, "[4]": {"test_system": "human bronchi", "settings": "cited from earlier work"}, "[5]": {"test_system": "TNFα", "test": "Expression of TNFα in MonoMac 6 cells after stimulation with FPRL-1 ligands (TaqMan)", "settings": "200 nM", "method": "(§1) In order to examine the effects of ligands for FPRL-1, MonoMac6 cells are seeded at a density of 250,000 cells/ml in 24-well plates (with 2 ml per well), grown for 24 hours at 37° C., 5% CO2 in a humidified atmosphere before stimulation with 200 nM lipoxin A4 (Biomol), W-peptide (1 μM) (synthesized by Metabion, Martinsried), and LPS (Sigma) as a positive control. Cells are harvested at different time points, and total RNA is isolated as described above using the Qiagen RNeasy Total RNA Isolation Kit (Qiagen).\n(§2) The RNA is used for Taqman analysis in order to monitor the expression of inflammatory markers like TNFα, IL-8, and MMP-12."}, "[6]": {"test_system": "IL-8", "test": "Expression of IL-8 in MonoMac 6 cells after stimulation with FPRL-1 ligands (TaqMan)", "settings": "200 nM", "method": "as §1, §2"}, "[7]": {"test_system": "MMP-12", "test": "Expression of MMP-12 in MonoMac 6 cells after stimulation with FPRL-1 ligands (TaqMan)", "settings": "200 nM", "method": "as §1, §2"}, "[8]": {"test_system": "FPRL-1", "test": "Expression of FPRL-1 in MonoMac6 cells after stimulation (TaqMan analysis)", "format": "cell-based, human", "settings": "10 nM PMA", "protocol": "MonoMac6 cells are cultivated in 24-well plates in RPMI 1640 media, supplemented with 10% FCS (low endotoxin), 2 mM glutamine, 1× non-essential amino acids, 200 U/ml penicillin, 200 μg/ml streptomycin, and 5 ml OPI media supplement (Sigma). Cells are grown to a density of 600,000 cells per well (2 ml media) and stimulated with 10 nM PMA (phorbol 12-myristate 13-acetate) (Sigma), or 20 ng/ml LPS (lipopolysaccharides from Salmonella minnesota Re595) (Sigma). For smoke exposure, cells are incubated in media enriched with smoke for 10 minutes at 37° C., 5% CO2 at a density of 1×10^6 cells/ml. Enrichment of RPMI 1640 media with smoke is performed with the smoke of two cigarettes. The smoke of the cigarettes is pulled into a 50 ml syringe (about 20 volumes of a 50-ml syringe per cigarette) and then perfused into 100 ml of RPMI 1640 media without supplements. Afterwards, the pH of the smoke-enriched media is adjusted to 7.4 and the media is sterilized through a 0.2 μm filter before use. After the exposure with smoke cells are washed at least twice with RPMI 1640 in order to remove residual smoke particles. Then cells are seeded in 24-well plates with 400,000-600,000 cells per well filled with 2 ml of fresh RPMI 1640 media including the supplements mentioned above.\nBoth cell types are cultivated at 37° C., 5% CO2 in a humidified atmosphere and cells are harvested at various time points in order to monitor time-dependent effects. Cells are spun down and washed with PBS, resuspended in 400 μl of RLT buffer (Qiagen RNeasy Total RNA Isolation Kit) with 143 mM β-mercaptoethanol, the DNA is sheared with a 20 g needle for at least 5 times and stored at −70° C.\nTotal RNAs are isolated with the Qiagen RNeasy Total RNA Isolation Kit (Qiagen) according to the manufacturer's protocol. Purified RNA is digested with RNase-free DNase (Qiagen) and used for TaqMan analysis.\nTaqman analysis is used to determine mRNA-levels for FPRL-1 in cell lines after treatment with and without various stimuli at different time points. Total RNA isolated from U937 cells that were treated for 3 days with […] is used in order to optimize reaction conditions for determining the mRNA-levels of FPRL-1 and setting standard curves for FPRL-1 and GAPDH (glyceraldehyde-3-phosphate dehydrogenase) as a housekeeping gene. Quantification of FPRL-1 is done with the following primers: Forward primer (rhHM63 668FP, SEQ ID NO:22), Reverse primer (hHM63 525(+)RP, SEQ ID NO:23) and TaqMan probe (rhHM63 629(−)TP, SEQ ID NO:24) labeled with reporter dye FAM at the 5′ end and quencher dye TAMRA at the 3′ end. The mRNA-levels for GAPDH are determined with a predeveloped kit for GAPDH “TaqMan GAPDH Control Reagents” (P/N 402869) from PE Applied Biosystems. The GAPDH probe is labeled with JOE as the reporter dye and TAMRA as the quencher dye. RT-PCR reactions are performed with the “TaqMan EZ RT-PCR Core Reagents” (P/N N808-0236) kit from Perkin Elmer. Standard curves for FPRL-1 and GAPDH are performed with increasing concentrations of RNA from U937 cells treated with 1 μM retinoic acid ranging from 0, 5, 10, 25, 50 to 100 ng per assay. Reaction mixes contain 1× TaqMan EZ-buffer, 3 mM Mn(Oac)2, 300 μM dATP, dCTP, dGTP, and 600 μM dUTP, 2.5 U rTth DNA polymerase, 0.25 U AmpErase UNG in a total volume of 25 μl. For analysis of FPRL-1 reaction mixes include 300 nM of rhHM63 668(−)FP and hHM63 525(+)RP and 100 nM of rhHM63 629(−)TP. The primer concentrations for determining GAPDH levels are 200 nM for each primer and 100 nM for the Taqman probe. In order to determine mRNA levels for FPRL-1 and GAPDH in human subjects and cell lines, 16 to 50 ng RNA per reaction are used. All samples are run in triplicate. The reactions are performed with “MicroAmp Optical 96-well reaction plates” sealed with “MicroAmp Optical Caps” (PE Applied Biosystems) in an ABI PRISM 7700 Sequence Detection System (PE Applied Biosystems). […]"}}}
{"molecule": "CCCCC[C@H](O)/C=C/C=C\\C=C\\C=C\\[C@@H](O)[C@@H](O)CCCC(=O)O", "note": "[Lipoxin A4, lipoxin A4]", "values": [{"measurement": "Migration Index", "setting": "[1]; 10 nM", "result": 0.86}, {"measurement": "Migration Index", "setting": "[1]; 100 nM", "result": 1.31}, {"measurement": "Migration Index", "setting": "[1]; 1 μM", "result": 1.68}, {"measurement": "chemotaxis, adherence and calcium release in monocytes", "setting": "[2]", "result": "stimulates"}, {"measurement": "chemotaxis and adhesion in neutrophils", "setting": "[3]", "result": "inhibits"}, {"measurement": "transmigration through epithelial cells", "setting": "[3]", "result": "downregulates"}, {"measurement": "contraction of human bronchi", "setting": "[4]", "result": "dose-dependent contraction"}, {"measurement": "Expression of TNFα, Fold Induction", "setting": "[5]; t 0 h", "result": 1.00, "unit": "fold"}, {"measurement": "Expression of TNFα, Fold Induction", "setting": "[5]; t 3 h", "result": 2.43, "unit": "fold"}, {"measurement": "Expression of IL-8, Fold Induction", "setting": "[6]; t 0 h", "result": 1.00, "unit": "fold"}, {"measurement": "Expression of IL-8, Fold Induction", "setting": "[6]; t 3 h", "result": 1.99, "unit": "fold"}, {"measurement": "Expression of MMP-12, Fold Induction", "setting": "[7]; t 0 h", "result": 1.00, "unit": "fold"}, {"measurement": "Expression of MMP-12, Fold Induction", "setting": "[7]; t 3 h", "result": 1.42, "unit": "fold"}]}
{"molecule": "CCCCCCCCCCCCCC(=O)O[C@@H]1[C@@H](C)[C@@]2(O)[C@@H](C=C(CO)C[C@]3(O)C(=O)C(C)=C[C@@H]23)[C@@H]2C(C)(C)[C@]12OC(C)=O", "note": "[PMA, phorbol 12-myristate 13-acetate]", "values": [{"measurement": "ng FPRL-1 mRNA/ ng GAPDH mRNA", "setting": "[8]; t 0 h", "result": "0.00 ng FPRL-1 mRNA/ ng GAPDH mRNA"}, {"measurement": "ng FPRL-1 mRNA/ ng GAPDH mRNA", "setting": "[8]; t 1 h", "result": "0.00 ng FPRL-1 mRNA/ ng GAPDH mRNA"}, {"measurement": "ng FPRL-1 mRNA/ ng GAPDH mRNA", "setting": "[8]; t 3 h", "result": "0.00 ng FPRL-1 mRNA/ ng GAPDH mRNA"}, {"measurement": "ng FPRL-1 mRNA/ ng GAPDH mRNA", "setting": "[8]; t 12 h", "result": "0.00 ng FPRL-1 mRNA/ ng GAPDH mRNA"}, {"measurement": "ng FPRL-1 mRNA/ ng GAPDH mRNA", "setting": "[8]; t 24 h", "result": "0.00 ng FPRL-1 mRNA/ ng GAPDH mRNA"}, {"measurement": "ng FPRL-1 mRNA/ ng GAPDH mRNA", "setting": "[8]; t 48 h", "result": "0.43 ng FPRL-1 mRNA/ ng GAPDH mRNA"}, {"measurement": "ng FPRL-1 mRNA/ ng GAPDH mRNA", "setting": "[8]; t 72 h", "result": "0.01 ng FPRL-1 mRNA/ ng GAPDH mRNA"}]}
{"molecule": "CSCC[C@H](NC(=O)[C@H](Cc1ccc(O)cc1)NC(=O)[C@H](CCCCN)NC(=O)[C@@H](N)Cc1c[nH]c2ccccc12)C(=O)N[C@H](C(=O)N[C@H](CCSC)C(N)=O)C(C)C", "note": "[W-peptide, W-K-Y-M-V-m]", "values": [{"measurement": "Migration Index", "setting": "[1]; 10 nM", "result": 0.95}, {"measurement": "Migration Index", "setting": "[1]; 100 nM", "result": 1.23}, {"measurement": "Migration Index", "setting": "[1]; 1 μM", "result": 2.46}]}
{"molecule": "monocyte chemotactic protein 1 [MCP-1]", "values": [{"measurement": "Migration Index", "setting": "[1]; 20 ng/ml", "result": 2.59}]}
